The values that follow come from patent US20080234241A1, “MELANOGENESIS INHIBITORS AND WHITENING AGENTS COMPRISING ERGOSTEROL DERIVATIVE AND COMPOSITIONS CONTAINING ERGOSTEROL DERIVATIVE” (Sakamoto Bio Co., Ltd., priority 2000, published 2008).

For assay [1], the system named is pigment deposition on brachial skin. The assay is described as follows: Measurement of whitening effect: lotion applied to brachial skin after exposure to sun light. In kind it is in vivo, men. The following applies: for Decision (whitening effect): lotion, group of 20 men, applied twice everyday for 5 weeks starting five days after sun exposure; for Whitening effect of lotions, result in words: lotions of Table 2, 20 men, 5 weeks. The method, then: Preparation the Alcohol and Water Phases are Prepared, Mixed, and Dissolved
A test group made up of 20 men was exposed to sun light in summer for four hours per day from […]. for 2 days. Five days after the exposure to the sun light, the lotion described above was applied to the group on the brachial skin twice everyday, once each in the morning and in the evening for 5 weeks.

In a further assay the test system is B 16 IOF7 melanoma cells. Description: Melanogenesis inhibitory effect in B16 melanoma cells. The note with it: for Minimum concentration for inhibition of melanogenesis: B16 cells cultivated 72 hours at 37° C., melanin from absorbance at 470 nm against methanol-treated control as 100%. The format is cell-based, mouse. The method, then: Melanogenesis inhibitory activity was evaluated using B 16 IOF7 melanoma cells (obtained from the Akita Research Institute of Food and Brewing, Japan), which are melanogenic cells of mouse cells, by application to the cells of an isolated form of Formula (1) described above in a solution diluted with the couture medium, thereby observing the production of melanin. The B16 cells, cultivated to a 70% confluent level in a flask, were washed with PBS and then were treated with a trypsin solution to isolate the cells. The same volume of a serum-containing culture medium (E-MEM, 10% FBS) as that of the trypsin was added to the flask, followed by collecting the cells and centrifuging (800 rpm, 5 min.). After this phase of the process, the number of cells was counted and adjusted to approximately 10^4 cells/ml in the culture medium (E-MEM, 10% FBS). A diluted solution of Formula (1) was prepared by placing 20 μL of sterile PBS on a cell culturing plate (a type for adherent cells) along with 20 μL of a Formula (1) solution, thereby doubling dilution (a final concentration in the culture medium from 100 μg/mL to […]). The control arbutin (a final concentration in the culture medium from 140 μg/mL to 0.22 μg/mL) in methanol was similarly diluted.
Then 80 μL of the cell suspension was added to the diluted sample solution (20 μL) on the plate, and the mixture was cultivated in a CO2 incubator at 37° C. for 72 hours. Melanogenesis in the cells was observed under a microscope. In cases where melanogenesis was confirmed microscopically, the culture medium was removed, and the cell layer was treated with 300 μL of 1N NaOH to dissolve the melanin, where the concentration of the melanin formed was determined from measurement of absorbance at 470 nm. The levels of Formula (1) and arbutin used were varied to determine their minimum concentrations needed for inhibiting melanogenesis, against the value of the methanol-treated control as 100%.

Take `CC(C)[C@@H](C)/C=C/[C@@H](C)[C@H]1CC[C@@H]2[C@]1(C)CCC1[C@]23C=C[C@]2(C[C@@H](O)CC[C@]12C)OO3` (stereo partly drawn) [Formula (1), 5α,8α-epidioxy-(22E,24R)-orgosta-6,22-dien-3β-ol]: the “Decision (whitening effect)” value is given as “B (11 to 15 out of the group rated “Effective” or “More effective”)” in assay [1] (content 0.2 % w/w) and “A (16 or more out of the group rated “Effective” or “More effective”)” in assay [1] (content 1.0 % w/w). The “Whitening effect of lotions, result in words” value in assay [1] was “prevented pigment deposition and gave a whitening effect”. In the assay with B 16 IOF7 melanoma cells (72 hours culture, compared with arbutin), the “Microscopic observation of melanogenesis in B16 cells” value is given as “inhibited more extensively by Formula (1) than by arbutin”. Besides, the “Minimum concentration for inhibition of melanogenesis” value with B 16 IOF7 melanoma cells was determined as 0.045 µg/mL.
On to `Oc1ccc(O)cc1` [hydroquinone, reference compound], for which the “Decision (whitening effect)” value in assay [1] (content 1.0 % w/w) is recorded as “C (6 to 10 out of the group rated “Effective” or “More effective”)”. In assay [1], the “Whitening effect of lotions, result in words” value is listed as “nor Comparative example 2 (hydroquinone) was effective”.
On to `OC[C@H]1O[C@@H](Oc2ccc(O)cc2)[C@H](O)[C@@H](O)[C@@H]1O` [Arbutin, arbutin, reference compound], for which, in the assay with B 16 IOF7 melanoma cells, the “Minimum concentration for inhibition of melanogenesis” value worked out at 0.88 µg/mL.
